Measured values: patent US10857180B2, “Pharmaceutical composition for improving health, cure abnormalities and degenerative disease, achieve anti-aging effect of therapy and therapeutic effect on mammals and method thereof” (priority 2014, dated 2020)
Marks after values point to notes of the source that are not given here.

Columns and labels:
[1] = test system: Ehrlich ascites carcinoma (EAC); test: Ehrlich ascites carcinoma (EAC) mouse model; format: in vivo
From the text: 10 male outbred mice (5 mice per group) at the age of 10 weeks, weighing 19-23 g were used in Ehrlich ascites carcinoma (EAC) model. Before the experiment, all the animals were healthy, with normal behavioral performance. During the experiment, the animals were kept in plastic cages under natural light illumination, on a standard diet with free access to food and water. An ascites strain of mouse breast cancer (EAC) maintained in outbred mice was used in the experiment. To inoculate the strain, the tumor cells derived from the ascitic fluid were placed in saline solution. The suspension cellularity was evaluated in the hemocytometer and adjusted to a concentration of 1×10^6 cells/ml with saline solution. The tumor was transplanted by injecting […] of the tumor cell suspension (0.25×10^6 cells/mouse) into the abdominal cavity of the animals.
The animals were divided into groups as follows: • Group No 1—control group, mice with EAC+solvent (deuterium-depleted water (this water contains deuterium at a level of 10 ppm)); • Group No 2−mice with EAC+^64Zne aspartate.
The solution comprising ^64Zne aspartate was injected intraperitoneally using a microinjection syringe at a dose of 0.075 mg (75 μg)/mouse every other day (5 times during 10 days) starting from the first day after injection in a volume of 0.5 ml/mouse. […] On the 13th day after i.p. inoculation of tumor cells, the whole ascites fluid was recovered from the animals and the total number of live/dead cells in each mouse was determined. Deuterium-depleted water alone was used instead of a solution of ^64Zne aspartate as control in the experiment.
The dynamics of formation of ascites in the control and experimental groups was assessed visually using a 10-point scale (one point was 0.46 cm of the mean diameter of the mouse abdomen filled with ascites).
In addition, on the 13th day after intraperitoneal inoculation of tumor cells, all ascetic fluid was removed from the abdomens in all animals from each group by washing their peritoneal cavities with saline solution and live and dead tumor cells were counted using the traditional vital dye trypan blue (HyClon, USA) and a hemocytometer.
The number of cells was determined using the following formula: X=((a)/80)×10^6, where X is the number of cells in 1 ml and a is the number of cells counted in 80 small squares of the hemocytometer.

[2] = test system: human non-small cell lung cancer (line A-549) cells; test: Immunocytochemistry (H-Score) of A-549 cells; format: cell-based
Description: When making the immunocytochemistry (ICC) assay, cells on microscope glasses (cytospin preparations) were fixed in the solution (methanol+acetone 1:1) for 2 hours at t 20° C. and incubated with 1% solution of bovine serum albumin (BSA) for 20 minutes. Then the monoclonal antibodies-CD44 (Diagnostic BioSystems), E-cadherin (ThermoScientific), N-cadherin (NeoMarker, BioLegend), SLUG (GeneTex)—were applied for the time period specified by the manufacturer (30 to 60 minutes), after which the Poly Vue imaging system conjugated with peroxidase was used and the enzyme activity was detected using diaminobenzidine (ThermoScientific) as a substrate. After the immunocytochemical reaction the preparations were washed with water and counterstained with hematoxylin-eosin (for 15 to 30 seconds).
The results were analyzed by counting cells with expression (brown colored cells) using a light microscope, and were assessed using the classical H-Score method: S=1×A+2×B+3×C, where S is the H-Score index giving a range of 0 (protein is not detected) to 300 (high-level expression in 100% of the cells); A is the percentage of weakly staining cells, B is the percentage of moderately staining cells and C is the percentage of strongly staining cells.

A-549 cell line = test: Cytogenetic analysis (micronucleus test) of A-549 cells; format: cell-based, human; settings: for increase of cells with protrusions: A-549
Description: Advanced Micronucleus Test was used to assess the cytogenetic characteristics of cells after their exposure to the action of the test group of components.
Cytogenetic analysis was carried out after 48 hours of exposure of the cells to the action of the components. For cytogenetic analysis, the cells were incubated in hypotonic solution KCl (0.54%) (Reahim, Ukraine) for 40 minutes at +37° C. Then they were fixed with a mixture of methyl alcohol (Reahim, Ukraine) and acetic acid (Himlaborreaktiv, Ukraine) (3:1) with replacing the fixative three times. All fixed cell suspensions were applied on cold wet glasses, dried and stained with Giemsa stain (Sigma, Germany). The cytogenetic preparations were analyzed using a binocular microscope Sari Zeiss, AxioStarPlus (Germany) with magnification of x 1000. The following quantitative characteristics and stages of cell division were analyzed on the preparations: mitoses, cells with premature chromosome condensation (PCC), cells with micronuclei (CMN), apoptotic cells and cells with nuclear protrusions (protrusions) which were calculated for 1000 cells and expressed in per mille (%).

[3] = test system: normal rat kidney cells (NRK cell line); test: Scratch assay, NRK cells; format: cell-based; settings: various doses; as in the control
Description: The cells of A-549, A-431, NRK, HaCaT, MM-4, normal fibroblasts (derived from the Bank of Cell Lines from human and animal tissues, R. E. Kavetsky Institute of Experimental Pathology, Oncology and Radiobiology, National Academy of Sciences of Ukraine) were cultured in complete culture medium RPMI 1640/DMEM (PAA, Austria) (depending on the cell type) supplemented with 10% fetal calf serum (PAA, Austria) and incubated in 5% CO2 humidified atmosphere at 37° C. The culture medium was replaced in 2 to 3 days and the cells were passaged in 4 to 5 days.
Analysis of the influence of the components under study on the cell migration rate was performed using the scratch assay method. Cells (5×10^4/well) were seeded into the wells of a 12-well plate in 2 repeats in RPMI-1640/DMEM culture medium supplemented with 10% PBS, 40 mcg/ml of gentamicin and incubated in 5% CO2 humidified atmosphere at 37° C. for 24 hours.
The plate was incubated in a CO2 incubator for additional 48 hours. After the cells formed a dense monolayer it was damaged (by making a “scratch”) and the growth medium was replaced to remove cell debris and smooth the edges of the “scratch.” The rate of cell migration was analyzed using an inverted microscope and by photographing cells in the area of injury. The migration activity of cells was fixed at several time points (depending on the cell line analyzed). The microphotomicrographs were analyzed and the cell incubation time needed to restore the monolayer was determined for all experimental groups.

[4] = test system: A-549 cell line (human lung cancer); test: Type A cell transformation of A-549 cells, effect of solution storage; format: cell-based
Description: Alluding to the above, the effect of accumulation of antitumor properties of light isotopes containing materials on A-549 tumor cell line will now be discussed. When working with the preparations under study, it was noted that the functional activity of certain doses of the components increased over time after preparation of the solution and its subsequent storage at t+4° C. […] The preparation was stored at the temperature of […].

Compound	suppression of growth of Ehrlich ascites carcinoma ([1]; after 5 injections) [%]	Volume of ascites in mice ([1]; day 7 after inoculation, 75 μg/mouse i.p. every other day x5)	Volume of ascites in mice ([1]; day 9, 75 μg/mouse i.p. x5)	Volume of ascites in mice ([1]; day 11, 75 μg/mouse i.p. x5)	Number of dead cells/mouse ([1]; day 13, 75 μg/mouse i.p.)	Number of live cells/mouse (M ± m) ([1]; day 13, 75 μg/mouse i.p.)	Volume of ascites (M ± m) ([1]; day 13, 75 μg/mouse i.p.)	Volume of ascites in mice ([1]; day 13, 75 μg/mouse i.p. x5)	number of slug-positive cells with nuclear expression [2]	number of cells with E-cadherin ([2]; dose of IC50)	increase of cells with protrusions (A-549 cell line) [fold]	time of restoration of the damaged monolayer [3] [h]	transformation of initial tumor cells to cells of type A ([4]; ^39K 0.4 mg/ml, in both cases) [%]	transformation of initial tumor cells to cells of type A ([4]; ^39K 10 mg/ml)	number of cells of type A after 20 days of storage vs first day ([4]; ^39K sulphate form 2 mg/ml) [fold]	slug-positive cells with cytoplasmic expression [2]	level of nuclear abnormalities vs control (A-549 cell line; ^64Zn 20 mcg/ml, 48 hours)	level of nuclear abnormalities vs dose of 10 mcg/ml (A-549 cell line; ^64Zn 20 mcg/ml, 48 hours)	cells of type A ([4]; ^64Zn sulphate, after 28 days)
NC(CC(=O)[O-])C(=O)[O-].[64Zn+2] (racemic) [^64Zne aspartate, ^64Zn aspartate (racemic)]	100	0* points	0** points	0* points	0	0* cells/mouse	0* ml/mouse	0** points											
[39K+].[Cl-] [^39K]									significantly decreased	inhibition	15	30	100	no transformational effect was found	2				
O=S(=O)([O-])[O-].[64Zn+2] [^64Zn]											~10	30				decrease	fifty times as high as the baseline	triple increase	About 50%
